Laboratory results: patent publication US10716305B2, “Anti-bacterial compositions” (priority 2015, dated 2020)
In brackets after ≈: the same amount, converted by molar mass. Where two headings read alike, the source gives them in different places. One block for each molecule: values may come before it.

What was measured:
[1] = tested on: MatTek EpiDerm tissue (Reconstructed Human Epidermis); assay: MatTek EpiDerm Skin Irritation Test (SIT); format: cell-based; conditions: 60 minutes treatment
Procedure: This test was conducted to predict dermal irritation potential of test articles in the context of identification and classification of skin irritation hazard according to the European Union (EU) classification ([…] or no label), United Nations Globally Harmonized System of Classification and Labeling of Chemicals (GHS) classification system (Category 2 and non-irritants), and OECD Guideline for the Testing of Chemicals No. 439-In Vitro Skin Irritation: Reconstructed Human Epidermis Test Method. This study was designed based on MatTek protocol in vitro EpiDermTM Skin Irritation Test. MatTek EpiDermTM tissue samples were treated in triplicate with the test composition, Negative Control and Positive Control for 60 minutes. Following treatment and subsequent incubation time, the viability of the tissues was determined using Methyl thiazole tetrazolium (MTT) uptake and reduction. The absorbance of each sample was measured at 540 nm. The viability was then expressed as a percent of control values. If the mean tissue viability was ≤50%, the test material was classified as an irritant; if the mean tissue viability was […].

bovine corneas = assay: OECD Bovine Corneal Opacity and Permeability Test (BCOP); conditions: 0.75 ml, 10-minute exposure
Procedure: This protocol is based on the methodology described in the current OECD Guideline for the Testing of Chemicals #437.
Following a 10-minute exposure for each group of dosed corneas, opacity measurements and sodium fluorescein permeability were determined.

[2] = tested on: BALB/C 3T3 mouse fibroblast cell line; assay: 3T3 Neutral Red Uptake Phototoxicity Assay; format: cell-based; conditions: for EC50: Mus musculus
Procedure: The cytotoxicity and phototoxicity of the test composition to 3T3 cells (in the presence or absence of UVA light) was assessed by Neutral Red Uptake. The 3T3 Neutral Red Uptake Phototoxicity Assay (3T3 NRU PT), based on the OECD Guideline for Testing of Chemicals: […] An Ultraviolet-Visible light (UV-VIS) spectral scan was performed on a solution containing 0.1% of the test composition in a solution of 1% DMSO/HBSS. […] For both the range-finding screen and the definitive test of the 3T3 assay, BALB/C 3T3 cells were seeded in the central 60 wells of duplicate 96-well microplates and maintained in culture for approximately 24 hours. The two 96-well plates were then preincubated with eight different concentrations of the test composition for approximately one hour. After preincubation, one plate was irradiated with a dose of 5 J/cm^2 Solar Simulated Light (SSL, containing wavelengths in the UVA and visible regions with >99% of UVB blocked out), while the duplicate plate was kept in the dark (No SSL). After UV irradiation, the treatment medium was replaced with culture medium and, after approximately 24 hours, cell viability was determined by neutral red uptake for three hours. A range finding screen was performed to determine the acceptable concentrations for the definitive test. MS Excel® was used to calculate the EC50 values and Photo-Irritant Factor (PIF) for the test article and the Chlorpromazine (CPZ) positive control in both the Screen and the Definitive test.

MRSA = assay: Comparative efficacy study, oral gavage, MRSA induction IP; format: in vivo, BALB/C mice; conditions: oral treatment for 7 days, Composition A 100 mg/kg, antibiotics per RX dose converted to mice
Procedure: Efficacy Study in comparison to leading anti-MRSA antibiotics was conducted in BALB/C mice.
7a. Administration Route: Oral Gavage
Group 1 (6 mice males)—MRSA Induction IP no treatment
Group 2 (6 mice males)—MRSA Induction IP—oral treatment for 7 days
Group 3 (6 mice males)—No Induction—oral treatment for 7 days
For the antibiotics the dose was as per RX prescription converted to mice Body Weights.
1—Erythromycin 250 mg/pt b.i.d. equals 2.1 mg/20 g mouse/day 300 mg total/12 mice
2—Clindamycin 150 mg/pt b.i.d. equals 1.25 mg/20 g mouse/day 200 mg total/12 mice
3—Vancomycine 250 mg/pt b.i.d. equals 2.1 mg/20 g mouse/day 300 mg total/12 mice

Compound: CCCCCCCCCCCCOS(=O)(=O)[O-].[Na+] [5% Sodium Dodecyl Sulfate, Sodium Dodecyl Sulfate]
Irritancy Classification [1]: Irritant (mean tissue viability was ≤50%, the test material was classified as an irritant)
Mean Tissue Viability ([1]; MTT, percent of control): 3.1%

Corrected Mean Opacity Score (bovine corneas): 22.66
Compound: CCO [100% Ethanol, Ethanol]
In Vitro Irritation Score (IVIS) (bovine corneas): 32.34

Compound: CN(C)CCCN1c2ccccc2Sc2ccc(Cl)cc21 [CPZ, Chlorpromazine]
EC50 ([2]; BALB/c3T3, light or radiation study, 5 J/cm^2 Solar Simulated Light, range tested 0.22-3.16 μg/ml, read-out: EC50 + SSL): 0.4 µg/mL
EC50 ([2]; BALB/c3T3, dark, range tested 6.81-100 μg/ml, read-out: EC50 No SSL): 18.8 µg/mL (≈ 59 µM)
PIF (Photo-Irritant Factor) ([2]; definitive test): 47.0

Compound: CC[C@H]1OC(=O)[C@H](C)[C@@H](O[C@H]2C[C@@](C)(OC)[C@@H](O)[C@H](C)O2)[C@H](C)[C@@H](O[C@@H]2O[C@H](C)C[C@H](N(C)C)[C@H]2O)[C@](C)(O)C[C@@H](C)C(=O)[C@H](C)[C@@H](O)[C@]1(C)O [Erythromycin]
blood cell culture (MRSA): two colonies

Compound: CN[C@H](CC(C)C)C(=O)N[C@H]1C(=O)N[C@@H](CC(N)=O)C(=O)N[C@H]2C(=O)N[C@H]3C(=O)N[C@H](C(=O)N[C@H](C(=O)O)c4cc(O)cc(O)c4-c4cc3ccc4O)[C@H](O)c3ccc(c(Cl)c3)Oc3cc2cc(c3O[C@@H]2O[C@H](CO)[C@@H](O)[C@H](O)[C@H]2O[C@H]2C[C@](C)(N)[C@H](O)[C@H](C)O2)Oc2ccc(cc2Cl)[C@H]1O [vancomycin, Vancomycin]
blood cell culture (MRSA): one colony
